Literature values in patent US20050053970A1, “Methods and compositions for identifying peptide aptamers capable of altering a cell phenotype” (priority 2001, published 2005).

Columns and labels:
[1] = molecular target: α/δ and α/γ sites in T. californica electric organ (Tetronarce californica, UniProt P02710+P02714+P02718)
mammals = conditions: in vivo
[2] = molecular target: T1, mutant human growth hormone (Thr175 Gly-hGH) and extracellular domain of the hGH receptor (Trp104 Gly-hGHbp) (Homo sapiens, UniProt P01241+P10912, T201G/W122G); conditions: Thr175 Gly-hGH with Trp104 Gly-hGHbp
T1 construct: the extracellular domain of the hGH receptor (Trp104 Gly-hGHbp)

Compound: ECCNPACGRHYSC-NH2 [α-conotoxin GI]
- discrimination between the α/δ and α/γ sites [1]: finds the α/δ site preferable to the α/γ site
- effect in mammals (mammals): lethal to mammals at low concentrations

Compound: Clc1cnc(C(Cl)(Cl)Cl)[nH]1 [5-chloro-2-trichloromethylimidazole]
- increase of the affinity of the mutant hormone for its receptor [2]: more than 1000 fold

Compound: ICCNPACGPLYSC-NH2 [α-conotoxin SI]
- activity in T. californica [1]: active
- discrimination between the α/δ and α/γ sites [1]: does not distinguish
- effect in mammals (mammals): essentially no effect
